# Data as given in paper PMC6696208, “Antityrosinase, Antioxidant, and Cytotoxic Activities of Phytochemical Constituents from Manilkara zapota L. Bark” (Molecules, 2019).
# Where “and” joins values, the source holds several entries; their conditions need not be identical. Equal entries are not always repeated. Where two headings read alike, the source gives them in different places. Marks after values point to notes of the source that are not given here.
# Assays:
# [1] = ABTS radical scavenging assay; conditions: mean ± SD of three replicates
# Method: The ABTS radical scavenging capacity was determined using a modified version of a previously described procedure. The stock solution included 100 mL of 7.0 mM ABTS solution in methanol and 100 mL of 2.4 mM aqueous solution of potassium persulfate. Then, the reaction mixture was left in the dark for 14 h at 37 °C. The solution of 1 mL of ABTS solution was diluted with 60 mL of absolute ethanol to determine an absorbance of 0.700 ± 0.001 units at 734 nm using a spectrophotometer. Next, 500 µL of the sample (100 mg/mL) was reacted with 500 µL of ABTS solution and the absorbance was measured at 734 nm after 7 min of incubation using a spectrophotometer. The results were compared with Trolox as a standard, and the percentage of scavenging activity was calculated according to the following equation:(4) ABTS radical scavenging activity (%)=[(Ac−As)/Ac]×100. where Ac is the absorbance of ABTS radicals with ethanol and As is the absorbance of ABTS radicals with the test sample or positive control.
# [2] = FRAP assay (ferric reducing antioxidant power); conditions: FRAP value, expressed as ferrous sulphate equivalent, mean ± SD of three replicates
# Method: FRAP assay was conducted using a modified version of a method originally reported in an earlier study. The FRAP reagent contained 25 mL of 0.3 M acetate buffer (pH 3.6), 2.5 mL of 20 mM ferric chloride solution, and 2.5 mL of 10 mM 2,4,6-tris(2-pyridyl)-1,3,5-triazine and was brought to a final volume of 50 mL using 40 mM HCl solution. Then, the FRAP reagent was put into a water bath for 30 min at 50 °C. Next, 600 μL of FRAP reagent was added to 25 μL of the sample (100 mg/mL). The absorbance was recorded at 595 nm after 4 min of incubation using a spectrophotometer. Trolox was used as a positive control. The ferric reducing capacity was expressed as a ferrous sulphate equivalent.
# [3] = system: HepG2 liver carcinoma cell line; experiment: MTT cytotoxicity assay, HepG2; type: cell-based; conditions: Homo sapiens, 72 h
# Method: (§1) Cytotoxic activity was evaluated in vitro using the microtitration colorimetric method of MTT reduction. In this study, five human carcinoma cell lines were used, including BT474 (ATCC® HTB20^TM), Chago-K1 (National Cancer Institute, Thailand), HepG2 (ATCC® HB8065^TM), KATO-III (ATCC® HTB103^TM), and SW620 (ATCC® CCL227^TM). Additionally, human diploid lung fibroblast (WI-38, ATCC® CCL75^TM) was used as the normal cell line for comparison with the carcinoma cell lines. The culturing of these cell lines was derived in complete medium, including Roswell Park Memorial Institute medium (RPMI-1640), fetal bovine serum (5%, v/v), 25 mM of 4-(2-hydroxyethyl)-1-piperazineethanesulfonic acid (HEPES), sodium bicarbonate (0.25%, w/v), and kanamycin (100 μg/mL). Doxorubicin was used as a positive control. Each well plate contained 198 μL of culture medium of cell lines and was incubated with 5% CO2 atmosphere for 24 h at 37 °C. Then, the culture cells were treated with 2 μL/well of the sample and incubated for 72 h at 37 °C. MTT solution (2 μL, 5 mg/mL in normal saline) was added into each well, and the plates were incubated for an additional 4 h. The supernatant was aspirated out. After that, a mixture of 25 μL of 0.1 M glycine and 150 μL of DMSO was added. The plates were shaken to dissolve the purple-blue crystal of formazan. Then, the absorbance was determined by a microplate reader at 540 nm. The relative cell survival as a percentage of the control (DMSO), which was set at 100%, was calculated using the following formula:(5) The cell survival (%)=[As/Ac] × 100. where As is the absorbance of the test sample and Ac is the absorbance of […].
# [4] = system: BT474 breast carcinoma cell line; experiment: MTT cytotoxicity assay, BT474; type: cell-based; conditions: Homo sapiens, BT-474, 72 h
# Method: as §1
# Mushroom tyrosinase [5] = target: T1, Mushroom tyrosinase (Agaricus bisporus, UniProt C7FF04); experiment: Kinetic analysis of tyrosinase inhibition, diphenolase activity (Lineweaver-Burk plots); type: biochemical; conditions: L-DOPA 0-200 μM, samples 20-1000 μM
# T1 sequence (G1K3P4 entry or part of it): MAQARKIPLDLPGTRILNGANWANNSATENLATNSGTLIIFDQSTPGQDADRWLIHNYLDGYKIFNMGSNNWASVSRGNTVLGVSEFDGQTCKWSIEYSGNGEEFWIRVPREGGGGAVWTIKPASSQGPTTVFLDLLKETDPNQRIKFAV
# T1 sequence (C7FF04 1-392): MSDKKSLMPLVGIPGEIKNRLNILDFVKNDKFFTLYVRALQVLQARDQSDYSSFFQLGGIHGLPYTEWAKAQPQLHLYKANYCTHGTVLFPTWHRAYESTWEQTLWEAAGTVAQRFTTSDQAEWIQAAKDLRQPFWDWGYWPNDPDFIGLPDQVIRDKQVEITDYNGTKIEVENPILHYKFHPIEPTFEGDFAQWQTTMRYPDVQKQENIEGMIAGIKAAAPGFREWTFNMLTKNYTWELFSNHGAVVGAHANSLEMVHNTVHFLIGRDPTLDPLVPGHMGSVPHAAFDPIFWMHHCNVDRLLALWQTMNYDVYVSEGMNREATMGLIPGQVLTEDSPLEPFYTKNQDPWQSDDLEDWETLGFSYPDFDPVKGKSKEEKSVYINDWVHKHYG
# Method: (§2) The kinetic analysis of tyrosinase inhibitory activity was performed with respect to both monophenolase and diphenolase activities. The concentration ranges of the samples were 20–1000 μM. Both L-tyrosine and L-DOPA were concentrated at 0, 25, 50, 100, and 200 μM, respectively. The inhibitory kinetics of the samples were analyzed using Lineweaver–Burk plots.
# [6] = DPPH radical scavenging assay; conditions: mean ± SD of three replicates
# Method: The DPPH radical scavenging activity was determined by a modified method based on a previously described procedure. Briefly, a solution containing 50 µL of sample (100 mg/mL) was dissolved in DMSO/ethanol (1:4 v/v) and 150 µL of 0.05 M DPPH solution in methanol. Then, the reaction mixture was mixed and was incubated in the dark for 30 min at 37 °C. The absorbance of the reaction mixture was measured at 517 nm. Trolox was used as a positive control. The DPPH scavenging effect was calculated according to the following equation:(3) DPPH radical scavenging activity (%)=[1−(As−Ab)/Ad]× 100. where As is the absorbance of the sample mixed with DPPH solution, Ab is the absorbance of the sample without DPPH solution, and Ad is the absorbance of DPPH solution without the sample.
# [7] = system: SW620 colon carcinoma cell line; experiment: MTT cytotoxicity assay, SW620; type: cell-based; conditions: Homo sapiens, SW-620, 72 h
# Method: as §1
# [8] = system: KATO-III gastric carcinoma cell line; experiment: MTT cytotoxicity assay, KATO-III; type: cell-based; conditions: Homo sapiens, 72 h
# Method: as §1
# [9] = system: WI-38 human diploid lung fibroblast; experiment: MTT cytotoxicity assay, WI-38 normal cell line; type: cell-based; conditions: 72 h
# Method: as §1
# [10] = system: Chago-K1 lung bronchus carcinoma cell line; experiment: MTT cytotoxicity assay, Chago-K1; type: cell-based; conditions: Homo sapiens, ChaGo-K-1, 72 h
# Method: as §1
# Mushroom tyrosinase [11] = target: T1, Mushroom tyrosinase; experiment: Kinetic analysis of tyrosinase inhibition, monophenolase activity (Lineweaver-Burk plots); type: biochemical; conditions: L-tyrosine 0-200 μM, samples 20-1000 μM
# Method: as §2
# [12] = design: method as in PMID 30364385; conditions: read-out: IC50 for DPPH; cited from earlier work
# [13] = design: method as in PMID 30364385; conditions: read-out: IC50 for ABTS; cited from earlier work
# tyrosinase = target: tyrosinase; design: method as in PMID 30364385; conditions: L-DOPA as substrate; read-out: IC50, antityrosinase; cited from earlier work
Compound,IC50 [1],FRAP [2],IC50 [3],IC50 [4],"Type of inhibition, diphenolase activity (Mushroom tyrosinase [5])",IC50 [6],IC50 [7],IC50 [8],IC50 [9],IC50 [10],"Type of inhibition, monophenolase activity (Mushroom tyrosinase [11])",FRAP ([2]; listed as 6-hydroxyflavanone (3)),melting point,IC50 [12],IC50 [13],IC50 (tyrosinase),FRAP ([2]; listed as (+)-dihydrokaempferol (4))
"CC1(C)CC[C@]2(C)CC=C3[C@]4(C)CC[C@H]5C(C)(C)[C@@H](O)CC[C@]5(C)[C@H]4CC[C@@]3(C)[C@@H]2C1 [Taraxerol (6), taraxerol]",630.84 ± 0.54 µM,1.46 ± 0.11 ^a μM,> 235 µM,> 235 µM,uncompetitive,16.3 ± 0.33 µM,> 235 µM,> 235 µM,> 235 µM,> 235 µM,noncompetitive,,,,,,
"O=C1CC(c2ccccc2)Oc2ccc(O)cc21 (stereo not drawn) [6-Hydroxyflavanone (3), 6-hydroxyflavanone]",225.5 ± 0.95 µM,4.12 ± 0.12 ^c μM,65.8 ± 2.37 µM,86.16 ± 0.45 µM,competitive,3.21 ± 0.7 µM,82.8 ± 1.33 µM,88.8 ± 3.7 µM,> 416 µM,57.7 ± 1.08 µM,competitive,4.12 ± 0.12 µM,,,,,
"CO[C@H]1CC[C@@]2(C)C(CC[C@@]3(C)C4=CC[C@]5(C)CCC(C)(C)CC5[C@@]4(C)CCC23)C1(C)C (stereo partly drawn) [Taraxerol methyl ether (1), taraxerol methyl ether]",520.22 ± 0.3 µM,1.31 ± 0.16 ^a μM,> 227 µM,185 ± 1.61 µM,noncompetitive,77.31 ± 0.6 µM,> 227 µM,> 227 µM,> 227 µM,> 227 µM,noncompetitive,,278 to 280 °C,,,,
"Cc1c(C)c2c(c(C)c1O)CCC(C)(C(=O)O)O2 (stereo not drawn) [Trolox, reference compound]",188.4 ± 0.43 µM,6.10 ± 0.28 μM and 6.10 ± 0.28 ^d μM,,,,1.92 ± 0.22 µM,,,,,,,,,,,
"COc1cccc2c1C(=O)c1c(O)c3c(c(O)c1C2=O)C[C@@](O)(C(=O)CO)C[C@@H]3O[C@H]1C[C@H](N)[C@H](O)[C@H](C)O1 [Doxorubicin, reference compound]",,,2.7 ± 0.83 µM,1.21 ± 0.2 µM,,,1.82 ± 0.39 µM,1.78 ± 0.83 µM,> 184 µM,1.58 ± 0.4 µM,,,,,,,
"O=C(O)c1ccc(O)c(O)c1 [3,4-Dihydroxybenzoic acid (5), 3,4-dihydroxybenzoic acid]",290.1 ± 0.95 µM,3.00 ± 0.40 ^b μM,364.7 ± 2.27 µM,85.2 ± 3.96 µM,competitive,4.71 ± 0.1 µM,591.4 ± 0.71 µM,507.5 ± 4.61 µM,> 649 µM,79.2 ± 4.02 µM,competitive,,,,,,
"C=C(C)[C@@H]1CC[C@]2(C)CC[C@]3(C)C(CCC4[C@@]5(C)CCC(OC(C)=O)C(C)(C)C5CC[C@]43C)C12 (stereo partly drawn) [Lupeol acetate (8), lupeol acetate]",669.62 ± 0.42 µM,1.28 ± 0.30 ^a μM,> 213 µM,60.2 ± 0.9 µM,uncompetitive,87.1 ± 0.31 µM,182.7 ± 1.51 µM,136.7 ± 0.66 µM,> 213 µM,199.9 ± 0.3 µM,mixed,,210 to 212 °C,,,,
O=C1c2c(O)cc(O)cc2O[C@H](c2cc(O)c(O)c(O)c2)[C@H]1O [dihydromyricetin],,,,,,,,,,,,,,12.4 µM,3.41 µM,3.33 µM,
"CC1(C)CC[C@]2(C)CC=C3[C@]4(C)CC[C@H]5C(C)(C)C(=O)CC[C@]5(C)[C@H]4CC[C@@]3(C)[C@@H]2C1 [Taraxerone (7), taraxerone]",334.8 ± 0.99 µM,1.12 ± 0.13 ^a μM,20.4 ± 1.43 µM,19.2 ± 0.4 µM,mixed,10.2 ± 0.4 µM,> 234 µM,26.5 ± 0.57 µM,> 234 µM,26.8 ± 0.97 µM,mixed,,,,,,
"O=C1c2c(O)cc(O)cc2O[C@H](c2ccc(O)cc2)[C@H]1O [(+)-Dihydrokaempferol (4), (+)-dihydrokaempferol]",214.8 ± 0.51 µM,6.23 ± 0.10 ^d μM,13.7 ± 0.38 µM,11.7 ± 0.42 µM,competitive,2.21 ± 0.77 µM,41.1 ± 1.08 µM,39.79 ± 0.38 µM,> 347 µM,12.3 ± 0.73 µM,competitive,,,,,,6.23 ± 0.10 µM
